Counter-ions that a name gives are not always drawn.
Columns and labels:
[1] = Absorption maxima (λmax., Δλmax.) and extinction coefficient of substrates and liberated coloured materials; format: physicochemical; conditions: for λmax. (coloured material): coloured material liberated from the substrate; for Δλmax. = λmax. (coloured material) - λmax. (substrate): difference of the absorption maxima
Text: Thus, for example, the difference of the absorption maxima of the known substrate γ-glutamyl-3-carboxy-4-nitroanilide (λmax. 317 nm) and of the coloured material obtained therefrom, i.e. 3-carboxy-4-nitroaniline(λmax. 380 nm) is 63 nm. In contradistinction thereto, the compounds according to the present invention of general formula (I) display substantially greater differences between the absorption spectra of the substrate and of the coloured material liberated enzymatically therefrom. As a rule, this difference is from 80 to 110 nm.
Δλmax. hereby means the difference between λmax. (coloured material)-λmax. (substrate).

γ-GT [2] = assay: Determination of the activity of γ-GT at 25° and 37° C. with S1 and L-Glupa C in human serum pools and control serum; format: biochemical; conditions: control serum PPU 516
γ-GT [3] = molecular target: T1, γ-GT (Homo sapiens, UniProt P19440); assay: as above; format: biochemical
T1 construct: in three mixtures of human sera; from tissue; host or cells: human serum (three pools of different activity); also a control serum of unstated origin
T1 sequence (P19440 1-380 limits assumed): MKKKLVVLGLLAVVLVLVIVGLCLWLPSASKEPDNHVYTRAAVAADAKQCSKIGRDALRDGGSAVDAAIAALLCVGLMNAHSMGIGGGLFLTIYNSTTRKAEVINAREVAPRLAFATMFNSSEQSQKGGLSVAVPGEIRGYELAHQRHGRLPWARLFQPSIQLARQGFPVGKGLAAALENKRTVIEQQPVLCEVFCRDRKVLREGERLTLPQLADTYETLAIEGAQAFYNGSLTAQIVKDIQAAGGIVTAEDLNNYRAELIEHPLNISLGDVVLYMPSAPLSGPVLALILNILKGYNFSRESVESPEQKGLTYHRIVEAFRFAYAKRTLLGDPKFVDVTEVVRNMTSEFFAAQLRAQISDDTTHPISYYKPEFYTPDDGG
T1 sequence (P19440 381-569 limits assumed): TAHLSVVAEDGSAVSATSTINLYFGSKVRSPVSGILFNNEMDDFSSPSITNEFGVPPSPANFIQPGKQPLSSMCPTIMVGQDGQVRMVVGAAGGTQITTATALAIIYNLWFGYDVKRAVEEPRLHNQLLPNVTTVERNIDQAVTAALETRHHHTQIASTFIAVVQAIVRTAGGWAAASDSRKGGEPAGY

γ-GT [4] = assay: as above; format: biochemical; conditions: control serum PPU 516; 25° C.
Experimental: (§1) 21.78 g. Glycylglycine were dissolved in about 900 ml. distilled water, the pH was adjusted to 7.9 with 2N aqueous sodium hydroxide solution, the amount of substrate calculated for a concentration of 1 mmole/liter was dissolved therein and the solution made up to 1000 ml. with distilled water. End concentration in the test:
(§2) 2.0 ml. of the reagent described in (a) was pipetted into a cuvette, tempered to 25° C. and mixed with 0.2 ml. of sample. The extinction increase per minute was measured at an apropriate wavelength.
(§3) One international unit (U) is the enzyme activity which converts 1 μmole of substrate per minute at 25° C. The activity of the γ-glutamyl transferase in U/liter in the sample is calculated according to the following equation: [formula] wherein ΔE/min is the extinction increase at an appropriate wavelength per minute, V is the batch volume in ml., v is the sample volume in ml., ε is the extinction coefficient in cm^2 μmol^-1 and d is the layer thickness of the cuvette in cm.
(§4) The substrates used were L-Glupa C and S1.

γ-GT [5] = molecular target: T1, γ-GT; assay: as above; format: biochemical; conditions: 25° C.
Experimental: as §1, §2, §3, §4

[6] = molecular target: T2, γ-glutamyl transferase (γ-GT) (Homo sapiens, UniProt P19440); assay: Determination of the activity of γ-glutamyl transferase in a control serum at 25° C. with different substrates; format: biochemical; conditions: for extinction coefficient: at the measurement wavelength: 546 nm (S1, S8, S9), 578 nm (S5), 405 nm (L-Glupa C); for γ-GT activity found in control serum (U/liter at 25° C.): same control serum, substrate 1 mmole/liter, glycylglycine 150 mmole/liter, pH 7.9
T2 construct: host or cells: control serum
T2 sequence (P19440 381-569 limits assumed): as above
T2 sequence (P19440 1-380 limits assumed): as the sequence (P19440 1-380 limits assumed) above
Experimental: as §1, §2, §3

[7] = routine use; cited from earlier work

Row | Molecule | λmax. (substrate) [1] [nm] | Δλmax. = λmax. (coloured material) - λmax. (substrate) [1] [nm] | extinction coefficient [6] [cm^2 μmol^-1] | γ-GT activity found in control serum (U/liter at 25° C.) [6] [U/liter] | further results
1 | Nc1ccc([N+](=O)[O-])c(C(=O)O)c1 [3-carboxy-4-nitroaniline, reference compound] | – | – | – | – | λmax. (coloured material) [1]: 380 nm
2 | N.N.N#Cc1cc([N+](=O)[O-])ccc1N=Nc1ccc(NC(=O)CCC(N)C(=O)O)cc1CCC(=O)O (centres unmarked) [S1, 2-Amino-5-[[4-(2-cyano-4-nitrophenyl)-azo-3-(2-carboxyethyl)-phenyl]-amino]-5-oxopentanoic acid diammonium salt] | 394 | 94 | 7.8 | 144 | γ-GT activity, control serum PPU 516 (γ-GT [2]): 268 U/l.; γ-GT activity, human serum pool 1 (γ-GT [3]): 96 U/l.; γ-GT activity, human serum pool 2 (γ-GT [3]): 176 U/l.; γ-GT activity, human serum pool 3 (γ-GT [3]): 490 U/l.; γ-GT activity, control serum PPU 516 (γ-GT [4]): 134 U/l.; γ-GT activity, human serum pool 1 (γ-GT [5]): 42 U/l.; γ-GT activity, human serum pool 2 (γ-GT [5]): 76 U/l.; γ-GT activity, human serum pool 3 (γ-GT [5]): 220 U/l.
3 | NC(CCC(=O)Nc1ccc(N=Nc2ccc([N+](=O)[O-])cc2)c(C(=O)O)c1)C(=O)O (centres unmarked) [S3, 2-amino-5-[(3-carboxyl-4-(4-nitrophenyl)-azophenyl]-amino]-5-oxopentnoic acid diammonium salt] | 314 | – | – | – | –
4 | Cc1c(C#N)sc(N=Nc2ccc(NC(=O)CCC(N)C(=O)O)cc2CCC(=O)O)c1C#N.N.N (centres unmarked) [S5, 2-Amino-5-[[3-(2-carboxyethyl)-4-(2,4-dicyano-3-methyl-5-thienyl)-azophenyl]-amino]-5-oxopentanoic acid diammonium salt] | 424 | 106 | 8.9 | 77 | –
5 | Cc1cc(NC(=O)CCC(N)C(=O)O)ccc1N=Nc1nc(C)c(C(=O)O)s1 (centres unmarked) [S7, 2-Amino-5-[[4-(5-carboxy-4-methyl-2-thiazolyl)-3-methylazophenyl]-amino]-5-oxopentanoic acid diammonium salt] | 412 | – | – | – | –
6 | Cc1nc(N=Nc2ccc(NC(=O)CCC(N)C(=O)O)cc2CCC(=O)O)sc1C#N.N.N (centres unmarked) [S8, 2-Amino-5-[[3-(2-carboxyethyl)-4-(5-cyano-4-methyl-2-thiazolyl)-azophenyl]-amino]-5-oxopentanoic acid diammonium salt] | 420 | 100 | 25.2 | 101 | –
7 | N.N.NC(CCC(=O)Nc1ccc(N=Nc2nccs2)c(CCC(=O)O)c1)C(=O)O (centres unmarked) [S9, 2-Amino-5-[[3-(2-carboxyethyl)-4-(2-thiazolyl)azophenyl]amino]-5-oxopentanoic acid diammonium salt] | 394 | – | 2.8 | 160 | –
8 | N.N.NC(CCC(=O)Nc1ccc(N=Nc2snc3cc([N+](=O)[O-])ccc23)c(OCC(=O)O)c1)C(=O)O (centres unmarked) [S11, 2-Amino-5-[[3-carboxymethoxy-4-(6-nitro-2,1-benzisothiazol-3-yl)-azophenyl]-amino]-5-oxopentanoic acid diammonium salt] | 453 | 107 | – | – | –
9 | NC(CCC(=O)Nc1ccc([N+](=O)[O-])cc1)C(=O)O (centres unmarked) [γ-glutamyl-p-nitroanilide] | – | – | – | – | solubility (known substrate) [7]: poor solubility; stability (known substrate) [7]: instability

More lines, main results first:

Row | λmax. (substrate) [1] [nm] | Molecule | Δλmax. = λmax. (coloured material) - λmax. (substrate) [1] [nm] | extinction coefficient [6] [cm^2 μmol^-1] | γ-GT activity found in control serum (U/liter at 25° C.) [6] [U/liter] | further results
10 | 414 | 2-Amino-5-[[4-(2-cyano-4-nitrophenyl)-azo-3-(2-carboxyethoxy)-phenyl]-amino]-5-oxopentanoic acid diammonium salt [S2] | – | – | – | –
11 | 317 | N[C@@H](CCC(=O)Nc1ccc([N+](=O)[O-])c(C(=O)O)c1)C(=O)O [L-Glupa C, L-γ-glutamyl-3-carboxy-4-nitroanilide, reference compound] | 63 | 9.5 | 128 | γ-GT activity, control serum PPU 516 (γ-GT [2]): 211 U/l.; γ-GT activity, human serum pool 1 (γ-GT [3]): 57 U/l.; γ-GT activity, human serum pool 2 (γ-GT [3]): 106 U/l.; γ-GT activity, human serum pool 3 (γ-GT [3]): 323 U/l.; γ-GT activity, control serum PPU 516 (γ-GT [4]): 139 U/l.; γ-GT activity, human serum pool 1 (γ-GT [5]): 35 U/l.; γ-GT activity, human serum pool 2 (γ-GT [5]): 63 U/l.; γ-GT activity, human serum pool 3 (γ-GT [5]): 190 U/l.
12 | 402 | N.N.NC(CCC(=O)Nc1ccc(N=Nc2cc(Cl)c([N+](=O)[O-])cc2Cl)c(OCC(=O)O)c1)C(=O)O (centres unmarked) [S4, 2-Amino-5-[[4-(2,5-dichloro-4-nitrophenyl)-azo-3-(carboxymethoxy)-phenyl]-amino]-5-oxopentanoic acid diammonium salt] | – | – | – | –
13 | 448 | Cc1c(C#N)sc(N=Nc2ccc(NC(=O)CCC(N)C(=O)O)cc2OCC(=O)O)c1C#N.N.N (centres unmarked) [S6, 2-Amino-5-[[3-carboxymethoxy-4-(2,4-dicyano-3-methyl-5-thienyl)-azophenyl]-amino]-5-oxopentanoic acid diammonium salt] | – | – | – | –
14 | 402 | C[n+]1ccsc1N=Nc1ccc(NC(=O)CCC(N)C(=O)[O-])cc1CCC(=O)O.N (centres unmarked) [S10, 2-Amino-5-[[3-(2-carboxylatoethyl)-4-(3-methylthiazolium-2-yl)-azophenyl]-amino]-5-oxopentanoic acid ammonium salt] | – | – | – | λmax. (coloured material) [1]: 486 nm; ε (coloured material) ([1]; printed after λmax. (coloured material)=486 nm): 15.5 cm^2 μmol^-1
15 | 424 | CCCCSc1nnc(N=Nc2ccc(NC(=O)CCC(N)C(=O)O)cc2OCC(=O)O)s1 (centres unmarked) [S12, 2-Amino-5-[[4-(2-butylthio-1,3,4-thiadiazol-5-yl)-3-carboxymethoxyazophenyl]-amino]-5-oxopentanoic acid diammonium salt] | – | – | – | –
16 | 449 | CCOc1ccc2nc(N=Nc3ccc(NC(=O)CCC(N)C(=O)O)cc3OCC(=O)O)sc2c1.N.N (centres unmarked) [S13, 2-Amino-5-[[3-carboxymethoxy-4-(6-ethoxy-2-benzothiazolyl)-azophenyl]-amino]-5-oxopentanoic acid diammonium salt] | – | – | – | –

Source: patent US4769447A, “Gamma-Glutamyl-4-azoanilides” (Boehringer Mannheim GmbH, priority 1986, dated 1988)
